Data taken from patent US20210254272A1, “TEXTILES HAVING ANTIMICROBIAL PROPERTIES” (Livinguard AG, priority 2015, published 2021).

Test system: E. coli (ATCC 25922)
Assay: AATCC Test Method 100-2012 antibacterial activity of the treated textile, after 25 washes and 12 abrasion cycles, contact time 60 minutes
Type: cell-based
Details: for Performance Test-Log reduction of antimicrobial performance: pad process, 2 min
Method: The antibacterial activity of the textile was tested in accordance with AATCC Test Method 100-2012. Prior to the test, the fabric was cut into coupons of 2×4 inches and washed separately 25 times, and exposed to 12 abrasion cycles, as per US EPA protocol 90072PA4 (described further below). The tests were made against E. coli (ATCC 25922). Contact time was 60 minutes, after inoculating with 10^8 CFU per coupon.

`CCCC1COC(Cn2cncn2)(c2ccc(Cl)cc2Cl)O1` (stereo not shown) [Propiconazole, propiconazole] was tested, and the “Performance Test-Log reduction of antimicrobial performance” value (shortened to “Performance Test-Log reduction”) (single agent 5 gm/lit, curing 180° C.) was 0.98 Log, the “Performance Test-Log reduction” value (single agent 10 gm/lit, curing 120° C.) was 0.25 Log and the “Performance Test-Log reduction” value (single agent 10 gm/lit, curing 140° C.) was 0.38 Log. The “Performance Test-Log reduction” value (single agent 10 gm/lit, curing 150° C.) was 0.42 Log, the “Performance Test-Log reduction” value (single agent 10 gm/lit, curing 160° C.) was 0.56 Log and the “Performance Test-Log reduction” value (single agent 10 gm/lit, curing 180° C.) was 2.11 Log. The “Log reduction of antimicrobial performance” value (pure cotton fabric, exhaust 80° C., 60 min, dosage 0.1% o.w.f) was 0.63 Log, the “Log reduction of antimicrobial performance” value (pure cotton fabric, exhaust 80° C., 60 min, dosage 0.2% o.w.f) was 1.45 Log and the “Log reduction of antimicrobial performance” value (pure cotton fabric, exhaust 80° C., 60 min, dosage 0.5% o.w.f) was 1.95 Log. For the same molecule, the “Log reduction of antimicrobial performance” value (pure cotton fabric, exhaust 80° C., 60 min, dosage 0.8% o.w.f) was 2.34 Log, the “Log reduction of antimicrobial performance” value (pure cotton fabric, exhaust 80° C., 60 min, dosage 1.0% o.w.f) was 2.85 Log and the “Log reduction of antimicrobial performance” value (pure cotton, exhaust 80° C., 1% o.w.f, 60 min, curing 180° C., curing dwell time 0.5 min) was 0.4 Log. For the same molecule, the “Log reduction of antimicrobial performance” value (pure cotton, exhaust 80° C., 1% o.w.f, 60 min, curing 180° C., curing dwell time 1.0 min) was 0.8 Log, the “Log reduction of antimicrobial performance” value (pure cotton, exhaust 80° C., 1% o.w.f, 60 min, curing 180° C., curing dwell time 1.5 min) was 2.2 Log and the “Log reduction of antimicrobial performance” value (pure cotton, exhaust 80° C., 1% o.w.f, 60 min, curing 180° C., curing dwell time 2.0 min) was 2.8 Log. The “Log reduction of antimicrobial performance” value (pure cotton, exhaust 80° C., 1% o.w.f, 60 min, curing 180° C., curing dwell time 2.5 min) was 2.3 Log, the “Log reduction of antimicrobial performance” value (pure cotton, exhaust 80° C., 1% o.w.f, 60 min, curing 180° C., curing dwell time 3.0 min) was 1.2 Log and the “Log reduction of antimicrobial performance” value (pure polyester fabric, exhaust 80° C., 60 min, curing 180° C., curing dwell time 0.5 min) was 0.4 Log. For the same molecule, the “Log reduction of antimicrobial performance” value (pure polyester fabric, exhaust 80° C., 60 min, curing 180° C., curing dwell time 1.0 min) was 0.8 Log, the “Log reduction of antimicrobial performance” value (pure polyester fabric, exhaust 80° C., 60 min, curing 180° C., curing dwell time 1.5 min) was 2.2 Log and the “Log reduction of antimicrobial performance” value (pure polyester fabric, exhaust 80° C., 60 min, curing 180° C., curing dwell time 2.0 min) was 2.74 Log. For the same molecule, the “Log reduction of antimicrobial performance” value (pure polyester fabric, exhaust 80° C., 60 min, curing 180° C., curing dwell time 2.5 min) was 2.35 Log, the “Log reduction of antimicrobial performance” value (pure polyester fabric, exhaust 80° C., 60 min, curing 180° C., curing dwell time 3.0 min) was 1.2 Log and the “Log reduction of antimicrobial performance” value (pure polyester fabric, exhaust 80° C., 60 min, dosage 0.1% o.w.f) was 0.57 Log. The “Log reduction of antimicrobial performance” value (pure polyester fabric, exhaust 80° C., 60 min, dosage 0.2% o.w.f) was 1.35 Log, the “Log reduction of antimicrobial performance” value (pure polyester fabric, exhaust 80° C., 60 min, dosage 0.5% o.w.f) was 1.67 Log and the “Log reduction of antimicrobial performance” value (pure polyester fabric, exhaust 80° C., 60 min, dosage 0.8% o.w.f) was 2.14 Log. For the same molecule, the “Log reduction of antimicrobial performance” value (pure polyester fabric, exhaust 80° C., 60 min, dosage 1.0% o.w.f) was 2.73 Log, the “Log reduction of antimicrobial performance” value (solution dosage 0.10% o.w.f, exhaust temperature 40° C., process time 60 min) was 0 Log and the “Log reduction of antimicrobial performance” value (solution dosage 0.10% o.w.f, exhaust temperature 60° C., process time 60 min) was 0 Log. The “Log reduction of antimicrobial performance” value (solution dosage 0.10% o.w.f, exhaust temperature 65° C., process time 60 min) was 0 Log, the “Log reduction of antimicrobial performance” value (solution dosage 0.10% o.w.f, exhaust temperature 70° C., process time 60 min) was 0 Log and the “Log reduction of antimicrobial performance” value (solution dosage 0.10% o.w.f, exhaust temperature 75° C., process time 60 min) was 0.59 Log. For the same molecule, the “Log reduction of antimicrobial performance” value (solution dosage 0.10% o.w.f, exhaust temperature 80° C., process time 60 min) was 0.56 Log, the “Log reduction of antimicrobial performance” value (solution dosage 0.10% o.w.f, exhaust temperature 85° C., process time 60 min) was 0.83 Log and the “Log reduction of antimicrobial performance” value (solution dosage 0.10% o.w.f, exhaust temperature 90° C., process time 60 min) was 0.83 Log. For the same molecule, the “Log reduction of antimicrobial performance” value (solution dosage 0.10% o.w.f, exhaust temperature 95° C., process time 60 min) was 0.83 Log, the “Log reduction of antimicrobial performance” value (solution dosage 0.20% o.w.f, exhaust temperature 40° C., process time 60 min) was 0 Log and the “Log reduction of antimicrobial performance” value (solution dosage 0.20% o.w.f, exhaust temperature 60° C., process time 60 min) was 0.08 Log. For the same molecule, the “Log reduction of antimicrobial performance” value (solution dosage 0.20% o.w.f, exhaust temperature 65° C., process time 60 min) was 0.09 Log, the “Log reduction of antimicrobial performance” value (solution dosage 0.20% o.w.f, exhaust temperature 70° C., process time 60 min) was 0.12 Log and the “Log reduction of antimicrobial performance” value (solution dosage 0.20% o.w.f, exhaust temperature 75° C., process time 60 min) was 0.89 Log. For the same molecule, the “Log reduction of antimicrobial performance” value (solution dosage 0.20% o.w.f, exhaust temperature 80° C., process time 60 min) was 1.34 Log, the “Log reduction of antimicrobial performance” value (solution dosage 0.20% o.w.f, exhaust temperature 85° C., process time 60 min) was 1.45 Log and the “Log reduction of antimicrobial performance” value (solution dosage 0.20% o.w.f, exhaust temperature 90° C., process time 60 min) was 1.45 Log. The “Log reduction of antimicrobial performance” value (solution dosage 0.20% o.w.f, exhaust temperature 95° C., process time 60 min) was 1.45 Log, the “Log reduction of antimicrobial performance” value (solution dosage 0.50% o.w.f, exhaust temperature 40° C., process time 60 min) was 0 Log and the “Log reduction of antimicrobial performance” value (solution dosage 0.50% o.w.f, exhaust temperature 60° C., process time 60 min) was 0.12 Log. The “Log reduction of antimicrobial performance” value (solution dosage 0.50% o.w.f, exhaust temperature 65° C., process time 60 min) was 0.13 Log, the “Log reduction of antimicrobial performance” value (solution dosage 0.50% o.w.f, exhaust temperature 70° C., process time 60 min) was 0.19 Log and the “Log reduction of antimicrobial performance” value (solution dosage 0.50% o.w.f, exhaust temperature 75° C., process time 60 min) was 1.12 Log. The “Log reduction of antimicrobial performance” value (solution dosage 0.50% o.w.f, exhaust temperature 80° C., process time 60 min) was 1.98 Log, the “Log reduction of antimicrobial performance” value (solution dosage 0.50% o.w.f, exhaust temperature 85° C., process time 60 min) was 2.04 Log and the “Log reduction of antimicrobial performance” value (solution dosage 0.50% o.w.f, exhaust temperature 90° C., process time 60 min) was 2.06 Log. For the same molecule, the “Log reduction of antimicrobial performance” value (solution dosage 0.50% o.w.f, exhaust temperature 95° C., process time 60 min) was 2.06 Log, the “Log reduction of antimicrobial performance” value (solution dosage 0.80% o.w.f, exhaust temperature 40° C., process time 60 min) was 0 Log and the “Log reduction of antimicrobial performance” value (solution dosage 0.80% o.w.f, exhaust temperature 60° C., process time 60 min) was 0.18 Log. For the same molecule, the “Log reduction of antimicrobial performance” value (solution dosage 0.80% o.w.f, exhaust temperature 65° C., process time 60 min) was 0.19 Log, the “Log reduction of antimicrobial performance” value (solution dosage 0.80% o.w.f, exhaust temperature 70° C., process time 60 min) was 0.23 Log and the “Log reduction of antimicrobial performance” value (solution dosage 0.80% o.w.f, exhaust temperature 75° C., process time 60 min) was 1.35 Log. For the same molecule, the “Log reduction of antimicrobial performance” value (solution dosage 0.80% o.w.f, exhaust temperature 80° C., process time 60 min) was 2.34 Log, the “Log reduction of antimicrobial performance” value (solution dosage 0.80% o.w.f, exhaust temperature 85° C., process time 60 min) was 2.56 Log and the “Log reduction of antimicrobial performance” value (solution dosage 0.80% o.w.f, exhaust temperature 90° C., process time 60 min) was 2.61 Log. The “Log reduction of antimicrobial performance” value (solution dosage 0.80% o.w.f, exhaust temperature 95° C., process time 60 min) was 2.61 Log, the “Log reduction of antimicrobial performance” value (solution dosage 1.00% o.w.f, exhaust temperature 40° C., process time 60 min) was 0 Log and the “Log reduction of antimicrobial performance” value (solution dosage 1.00% o.w.f, exhaust temperature 60° C., process time 60 min) was 0.25 Log. For the same molecule, the “Log reduction of antimicrobial performance” value (solution dosage 1.00% o.w.f, exhaust temperature 65° C., process time 60 min) was 0.26 Log, the “Log reduction of antimicrobial performance” value (solution dosage 1.00% o.w.f, exhaust temperature 70° C., process time 60 min) was 0.32 Log and the “Log reduction of antimicrobial performance” value (solution dosage 1.00% o.w.f, exhaust temperature 75° C., process time 60 min) was 1.42 Log. For the same molecule, the “Log reduction of antimicrobial performance” value (solution dosage 1.00% o.w.f, exhaust temperature 80° C., process time 60 min) was 2.87 Log, the “Log reduction of antimicrobial performance” value (solution dosage 1.00% o.w.f, exhaust temperature 85° C., process time 60 min) was 2.89 Log and the “Log reduction of antimicrobial performance” value (solution dosage 1.00% o.w.f, exhaust temperature 90° C., process time 60 min) was 2.91 Log. The “Log reduction of antimicrobial performance” value (solution dosage 1.00% o.w.f, exhaust temperature 95° C., process time 60 min) was 2.91 Log.
